“And” between values parts separate entries of the source, which are not always exact repeats. Equal entries are not always repeated. Where two headings read alike, the source gives them in different places.
Legend:
[1] = system: stress HSP90 from MDA-MB-468 cancer cells; assay: Binding to stress HSP90; design: species or system human; conditions: study protocol; read-out: affinity (EC50) for stress HSP90
[2] = system: MDA-MB-468 cells; assay: Cell viability, ATP levels 72 h; type: cell-based, human; conditions: control MDA-MB-468 of Fig. 6f; mean
[3] = target: T1, CYP3A4 (Homo sapiens, UniProt P08684); assay: Cytochrome P450 profiling, troleandomycin; type: in vitro ADME; conditions: for % PU-HZ151 remaining: Troleandomycin
T1 construct: tissue Life Technologies HMMCPL; host or cells: human liver microsomes
T1 sequence (P08684 whole entry): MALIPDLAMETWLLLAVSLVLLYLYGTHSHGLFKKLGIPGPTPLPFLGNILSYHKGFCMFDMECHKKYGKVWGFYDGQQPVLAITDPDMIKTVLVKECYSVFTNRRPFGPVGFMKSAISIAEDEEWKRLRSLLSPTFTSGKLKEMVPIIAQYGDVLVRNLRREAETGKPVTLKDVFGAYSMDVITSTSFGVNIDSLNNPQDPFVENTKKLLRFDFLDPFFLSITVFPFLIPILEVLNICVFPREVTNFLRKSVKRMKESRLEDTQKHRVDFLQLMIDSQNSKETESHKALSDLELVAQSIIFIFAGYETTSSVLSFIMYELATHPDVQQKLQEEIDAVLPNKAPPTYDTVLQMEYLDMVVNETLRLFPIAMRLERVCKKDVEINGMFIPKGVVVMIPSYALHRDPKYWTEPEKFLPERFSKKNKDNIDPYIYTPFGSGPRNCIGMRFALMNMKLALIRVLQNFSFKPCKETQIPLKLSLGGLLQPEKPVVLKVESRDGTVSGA
Protocol: To identify cytochrome P450 enzymes responsible for PU-HZ151’s metabolism in human liver microsomes the following procedure was followed. Phosphate buffer (100 mM, pH 7.4) was prepared monthly and stored at 4 °C. Frozen stock solutions of human liver microsomes (Life Technologies; Cat# HMMCPL) were used once after thawing and were not refrozen. NADPH stock solution (50 mM) in distilled water was prepared fresh daily. […] The stock solutions of these P450 inhibitors were prepared in DMSO. […] The concentration of the chemical inhibitors used in the assay were furafylline (10 μM), tranylcypromine (2 μM), ketoconazole (1 μM), troleandomycin (20 μM), orphenadrine (50 μM), montelukast (3 μM), sulfaphenazole (10 μM), benzylnirvanol (1 μM), quinidine (1 μM), and 1-aminobenzotriazole (1 mM) for all the P450 enzymes. Timing of the reactions was started following the addition of NADPH/magnesium chloride mix and PU-HZ151. Time-dependent chemical inhibitors (furafylline, troleandomycin, orphenadrine, and 1-aminobenzotriazole) were preincubated with human microsomes in the presence of NADPH and magnesium chloride for 15 min before the addition of PU-HZ151 and timing of reactions was started after addition of PU-HZ151. […] Following brief vortexing and centrifugation, a 200 µL aliquot of the supernatant was transferred to a tube, and 10 µL of haloperidol (1 µg mL^−1) as internal standard was added. Following brief vortexing and centrifugation, 50 µL of supernatant was added to a 96-well plate for subsequent LC-MS/MS analysis. PU-HZ151 was similarly tested as above in the absence of CYP inhibitors for comparative purposes. All samples were assayed in duplicate. […] This was similarly performed for incubations of PU-HZ151 performed in the absence of CYP inhibitor.

[4] = system: epichaperomes in MDA-MB-468 cells; assay: Epichaperome modulation, Native PAGE; type: cell-based, human
[5] = system: patient-derived GSCs; assay: GSC viability (CellTiter-Glo, 48 h); type: cell-based, human; design: %Survival of cells at day 0 (ATP levels): concentration or dose not given beside the values; %Survival (ATP levels): reference not given here; conditions: for %Survival (ATP levels): 1 μM, 48 h, individual replicates, listed as PU-HZ151; for %Survival of cells at day 0 (ATP levels): mean
[6] = system: normal neurons; type: cell-based; conditions: constant exposure of 72 hours
[7] = system: MDA-MB-468 tumor and organs; assay: LC/MS-MS tissue concentration 48 h after 75 mg kg-1 ip; type: in vivo; conditions: 48 h post 75mg/kg ip, mouse 1-4; listed as PU-HZ151
[8] = as above; type: in vivo; conditions: mouse, MDA-MB-468 tumor, intraperitoneal, 75 mg kg^−1, 48 h post 75mg/kg ip, mouse 1-4; read-out: [PU-HZ151] MDA-MB-468 TUMOR
[9] = target: T2, 97 kinases (Homo sapiens, UniProt O15075); assay: scanEDGE off-target screen; type: binding; conditions: read-out: %Ctrl DCAMKL1
T2 construct: purchased Ambit Biosciences (scanEDGE / KINOMEscan) scanEDGE 97 kinase panel; host or cells: T7 phage in E. coli BL21-derived host; remaining kinases in HEK-293 cells
T2 sequence (O15075 whole entry): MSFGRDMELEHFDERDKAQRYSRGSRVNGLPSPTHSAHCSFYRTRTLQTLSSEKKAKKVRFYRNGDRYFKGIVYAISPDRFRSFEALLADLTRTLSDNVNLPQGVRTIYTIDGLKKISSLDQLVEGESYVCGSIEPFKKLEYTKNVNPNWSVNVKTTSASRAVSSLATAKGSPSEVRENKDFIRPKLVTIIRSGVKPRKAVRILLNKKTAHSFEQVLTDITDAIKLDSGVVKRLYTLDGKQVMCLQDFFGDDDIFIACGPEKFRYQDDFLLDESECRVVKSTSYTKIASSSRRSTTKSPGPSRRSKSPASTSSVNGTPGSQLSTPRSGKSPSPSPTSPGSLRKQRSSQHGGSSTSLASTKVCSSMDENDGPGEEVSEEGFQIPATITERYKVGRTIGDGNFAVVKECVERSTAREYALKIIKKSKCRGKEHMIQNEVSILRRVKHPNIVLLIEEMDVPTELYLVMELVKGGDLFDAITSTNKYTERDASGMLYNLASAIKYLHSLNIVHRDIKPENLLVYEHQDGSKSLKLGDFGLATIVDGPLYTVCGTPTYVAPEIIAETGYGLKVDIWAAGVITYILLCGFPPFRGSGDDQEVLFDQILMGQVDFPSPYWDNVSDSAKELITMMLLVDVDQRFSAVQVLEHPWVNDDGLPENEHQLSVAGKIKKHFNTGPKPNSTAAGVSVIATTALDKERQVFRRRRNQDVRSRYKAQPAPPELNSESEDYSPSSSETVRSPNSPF

[10] = target: T3, 97 kinases (Homo sapiens, UniProt Q9BWU1); assay: scanEDGE off-target screen; type: binding; conditions: read-out: %Ctrl CDK11
T3 construct: purchased Ambit Biosciences (scanEDGE / KINOMEscan) scanEDGE 97 kinase panel; host or cells: T7 phage in E. coli BL21-derived host; remaining kinases in HEK-293 cells
T3 sequence (Q9BWU1 whole entry): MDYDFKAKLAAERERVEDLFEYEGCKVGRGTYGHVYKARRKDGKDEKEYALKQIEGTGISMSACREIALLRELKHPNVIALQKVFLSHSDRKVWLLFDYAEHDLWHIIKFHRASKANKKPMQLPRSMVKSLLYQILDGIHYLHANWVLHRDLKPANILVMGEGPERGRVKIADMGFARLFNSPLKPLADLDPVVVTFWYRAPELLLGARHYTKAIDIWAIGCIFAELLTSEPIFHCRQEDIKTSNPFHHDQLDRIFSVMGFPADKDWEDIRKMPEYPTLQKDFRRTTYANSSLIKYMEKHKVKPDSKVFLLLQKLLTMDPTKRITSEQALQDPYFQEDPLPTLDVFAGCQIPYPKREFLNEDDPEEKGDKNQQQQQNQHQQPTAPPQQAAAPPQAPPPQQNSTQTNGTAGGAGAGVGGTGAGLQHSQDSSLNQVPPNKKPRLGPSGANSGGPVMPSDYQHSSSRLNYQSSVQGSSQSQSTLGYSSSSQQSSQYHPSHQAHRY

[11] = target: T4, 97 kinases (Homo sapiens, UniProt Q00526); assay: scanEDGE off-target screen; type: binding; conditions: read-out: %Ctrl CDK3
T4 construct: purchased Ambit Biosciences (scanEDGE / KINOMEscan) scanEDGE 97 kinase panel; host or cells: T7 phage in E. coli BL21-derived host; remaining kinases in HEK-293 cells
T4 sequence (Q00526 whole entry): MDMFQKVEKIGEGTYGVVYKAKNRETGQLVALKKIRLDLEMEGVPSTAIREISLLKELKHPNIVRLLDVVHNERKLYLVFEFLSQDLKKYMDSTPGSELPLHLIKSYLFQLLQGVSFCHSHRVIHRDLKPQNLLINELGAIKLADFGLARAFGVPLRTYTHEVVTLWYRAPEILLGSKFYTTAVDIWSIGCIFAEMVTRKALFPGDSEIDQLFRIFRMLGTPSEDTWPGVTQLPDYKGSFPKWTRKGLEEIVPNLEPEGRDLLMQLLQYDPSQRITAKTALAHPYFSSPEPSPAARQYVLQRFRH

[12] = target: T5, 97 kinases (Homo sapiens, UniProt Q13873); assay: scanEDGE off-target screen; type: binding; conditions: read-out: %Ctrl BMPR2
T5 construct: purchased Ambit Biosciences (scanEDGE / KINOMEscan) scanEDGE 97 kinase panel; host or cells: T7 phage in E. coli BL21-derived host; remaining kinases in HEK-293 cells

[13] = target: T6, 97 kinases (Homo sapiens, UniProt P50750); assay: scanEDGE off-target screen; type: binding; conditions: read-out: %Ctrl CDK9
T6 construct: purchased Ambit Biosciences (scanEDGE / KINOMEscan) scanEDGE 97 kinase panel; host or cells: T7 phage in E. coli BL21-derived host; remaining kinases in HEK-293 cells

[14] = target: T7, 97 kinases (Homo sapiens, UniProt P00519); assay: scanEDGE off-target screen; type: binding
T7 construct: purchased Ambit Biosciences (scanEDGE / KINOMEscan) scanEDGE 97 kinase panel; host or cells: T7 phage in E. coli BL21-derived host; remaining kinases in HEK-293 cells

[15] = target: T8, 97 kinases (Homo sapiens, UniProt Q02750); assay: scanEDGE off-target screen; type: binding; conditions: read-out: %Ctrl MEK1
T8 construct: purchased Ambit Biosciences (scanEDGE / KINOMEscan) scanEDGE 97 kinase panel; host or cells: T7 phage in E. coli BL21-derived host; remaining kinases in HEK-293 cells
T8 sequence (Q02750 whole entry): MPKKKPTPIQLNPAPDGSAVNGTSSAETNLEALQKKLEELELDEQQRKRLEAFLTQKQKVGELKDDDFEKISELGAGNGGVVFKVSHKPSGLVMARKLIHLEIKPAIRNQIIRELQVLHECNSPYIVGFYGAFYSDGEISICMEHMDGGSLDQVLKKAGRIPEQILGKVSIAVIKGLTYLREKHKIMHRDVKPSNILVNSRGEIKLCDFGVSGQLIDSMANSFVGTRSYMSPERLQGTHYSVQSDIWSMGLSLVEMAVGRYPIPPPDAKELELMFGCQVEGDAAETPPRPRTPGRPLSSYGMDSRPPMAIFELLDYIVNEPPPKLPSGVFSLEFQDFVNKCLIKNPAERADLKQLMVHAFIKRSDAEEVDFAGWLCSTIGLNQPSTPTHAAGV

[16] = target: T9, 97 kinases (Homo sapiens, UniProt O15530); assay: scanEDGE off-target screen; type: binding; conditions: read-out: %Ctrl PDPK1
T9 construct: purchased Ambit Biosciences (scanEDGE / KINOMEscan) scanEDGE 97 kinase panel; host or cells: T7 phage in E. coli BL21-derived host; remaining kinases in HEK-293 cells
T9 sequence (O15530 whole entry): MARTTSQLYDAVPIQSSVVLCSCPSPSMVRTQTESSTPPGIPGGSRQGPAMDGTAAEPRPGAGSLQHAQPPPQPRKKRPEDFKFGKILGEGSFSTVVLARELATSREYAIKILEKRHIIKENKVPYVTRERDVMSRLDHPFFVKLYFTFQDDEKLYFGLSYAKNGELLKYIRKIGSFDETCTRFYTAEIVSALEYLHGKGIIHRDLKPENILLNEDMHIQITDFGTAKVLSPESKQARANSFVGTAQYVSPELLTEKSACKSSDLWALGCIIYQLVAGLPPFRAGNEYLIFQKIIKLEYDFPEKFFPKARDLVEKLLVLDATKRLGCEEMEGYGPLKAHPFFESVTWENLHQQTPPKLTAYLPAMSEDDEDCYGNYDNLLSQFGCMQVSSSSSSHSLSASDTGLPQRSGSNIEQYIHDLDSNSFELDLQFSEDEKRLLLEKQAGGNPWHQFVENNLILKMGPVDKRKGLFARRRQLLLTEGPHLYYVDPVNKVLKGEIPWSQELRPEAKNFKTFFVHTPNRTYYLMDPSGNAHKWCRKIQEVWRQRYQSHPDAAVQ

[17] = target: T10, 97 kinases (Homo sapiens, UniProt O14920); assay: scanEDGE off-target screen; type: binding; conditions: read-out: %Ctrl IKK-beta
T10 construct: purchased Ambit Biosciences (scanEDGE / KINOMEscan) scanEDGE 97 kinase panel; host or cells: T7 phage in E. coli BL21-derived host; remaining kinases in HEK-293 cells
T10 sequence (O14920 whole entry): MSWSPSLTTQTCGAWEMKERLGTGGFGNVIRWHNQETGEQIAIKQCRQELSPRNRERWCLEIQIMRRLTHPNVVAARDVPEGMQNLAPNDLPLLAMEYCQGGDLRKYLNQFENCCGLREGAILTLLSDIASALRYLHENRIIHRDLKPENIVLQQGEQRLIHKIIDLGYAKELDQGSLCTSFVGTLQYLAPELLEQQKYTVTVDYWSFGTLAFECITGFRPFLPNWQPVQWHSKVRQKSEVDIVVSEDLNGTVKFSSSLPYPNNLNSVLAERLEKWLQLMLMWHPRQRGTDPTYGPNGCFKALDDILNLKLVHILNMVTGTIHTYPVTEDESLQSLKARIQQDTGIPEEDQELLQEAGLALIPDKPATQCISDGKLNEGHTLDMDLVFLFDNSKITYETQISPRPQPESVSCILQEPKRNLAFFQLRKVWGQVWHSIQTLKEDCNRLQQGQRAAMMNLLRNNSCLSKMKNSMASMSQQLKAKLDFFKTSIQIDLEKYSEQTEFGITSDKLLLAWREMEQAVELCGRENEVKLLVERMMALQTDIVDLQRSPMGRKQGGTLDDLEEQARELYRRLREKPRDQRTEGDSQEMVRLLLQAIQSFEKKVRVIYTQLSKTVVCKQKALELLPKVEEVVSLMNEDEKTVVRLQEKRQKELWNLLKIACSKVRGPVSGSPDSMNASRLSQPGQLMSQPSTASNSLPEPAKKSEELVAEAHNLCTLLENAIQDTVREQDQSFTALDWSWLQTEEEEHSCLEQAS

[18] = target: T11, 97 kinases (Homo sapiens, UniProt P45983); assay: scanEDGE off-target screen; type: binding; conditions: read-out: %Ctrl JNK1
T11 construct: purchased Ambit Biosciences (scanEDGE / KINOMEscan) scanEDGE 97 kinase panel; host or cells: T7 phage in E. coli BL21-derived host; remaining kinases in HEK-293 cells
T11 sequence (P45983 whole entry): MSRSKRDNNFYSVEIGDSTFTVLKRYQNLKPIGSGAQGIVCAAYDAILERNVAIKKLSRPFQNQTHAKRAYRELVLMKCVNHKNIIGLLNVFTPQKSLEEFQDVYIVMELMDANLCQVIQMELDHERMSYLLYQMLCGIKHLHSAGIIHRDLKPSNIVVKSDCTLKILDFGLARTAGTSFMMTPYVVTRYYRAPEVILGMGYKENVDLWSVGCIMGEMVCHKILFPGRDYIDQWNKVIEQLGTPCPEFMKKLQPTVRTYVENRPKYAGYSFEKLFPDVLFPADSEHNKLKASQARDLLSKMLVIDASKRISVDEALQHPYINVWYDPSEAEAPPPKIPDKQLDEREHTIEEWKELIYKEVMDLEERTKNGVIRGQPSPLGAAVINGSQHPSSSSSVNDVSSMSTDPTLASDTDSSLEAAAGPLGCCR

[19] = target: T12, 97 kinases (Homo sapiens, UniProt P43403); assay: scanEDGE off-target screen; type: binding; conditions: read-out: %Ctrl ZAP70
T12 construct: purchased Ambit Biosciences (scanEDGE / KINOMEscan) scanEDGE 97 kinase panel; host or cells: T7 phage in E. coli BL21-derived host; remaining kinases in HEK-293 cells
T12 sequence (P43403 whole entry): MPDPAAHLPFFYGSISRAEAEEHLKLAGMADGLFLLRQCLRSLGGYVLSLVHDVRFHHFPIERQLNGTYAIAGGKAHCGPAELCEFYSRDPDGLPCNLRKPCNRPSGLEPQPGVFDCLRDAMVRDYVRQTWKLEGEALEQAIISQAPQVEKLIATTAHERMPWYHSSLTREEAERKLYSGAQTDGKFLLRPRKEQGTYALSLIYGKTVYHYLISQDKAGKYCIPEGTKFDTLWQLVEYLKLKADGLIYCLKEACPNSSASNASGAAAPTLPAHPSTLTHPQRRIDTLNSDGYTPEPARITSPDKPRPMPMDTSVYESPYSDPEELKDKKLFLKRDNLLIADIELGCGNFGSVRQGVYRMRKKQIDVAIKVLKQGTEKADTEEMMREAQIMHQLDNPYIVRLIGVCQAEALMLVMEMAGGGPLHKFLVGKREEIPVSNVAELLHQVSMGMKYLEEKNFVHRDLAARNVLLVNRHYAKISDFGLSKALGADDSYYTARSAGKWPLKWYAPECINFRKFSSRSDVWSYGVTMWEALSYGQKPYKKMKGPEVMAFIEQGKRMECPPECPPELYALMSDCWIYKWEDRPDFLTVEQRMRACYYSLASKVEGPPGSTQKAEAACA

[20] = target: T13, 97 kinases (Homo sapiens, UniProt P00519, T315I); assay: scanEDGE off-target screen; type: binding; conditions: read-out: %Ctrl ABL1(T315I)-phosphorylated
T13 construct: purchased Ambit Biosciences (scanEDGE / KINOMEscan) scanEDGE 97 kinase panel; host or cells: T7 phage in E. coli BL21-derived host; remaining kinases in HEK-293 cells

## CC(C)(C)CNCCn1c(Sc2cc3c(cc2I)OCO3)nc2c(N)ncnc21 [Compound 85]
[1]
  EC50: 6.9 nM
[2]
  %Survival of cells at day 0 (ATP levels): -90%
[3]; 15 min
  % PU-HZ151 remaining: 79.8%
[3]; 30 min
  % PU-HZ151 remaining: 66.9%
[3]; 60 min
  % PU-HZ151 remaining: 50.9%
[3]; troleandomycin
  inhibition of PU-HZ151 metabolism: 40%
[4]; [PU-HZ151] 0.05 uM
  Epichaperome modulation (Native PAGE), R1-R3: 101.613 and 126.223 and 117.544
[4]; [PU-HZ151] 0.1 uM
  Epichaperome modulation (Native PAGE), R1-R3: 92.742 and 86.889 and 60.276
[5]; GSC #5
  %Survival (ATP levels): 31.63% and 18.68% and 4.03% and -9.88%
[5]; GSC #6
  %Survival (ATP levels): -14.27% and -27.68% and -18.96% and -23.61%
[5]; GSC #7
  %Survival (ATP levels): -51.27% and -33.16% and -43.96% and -19.32%
[5]; GSC #8
  %Survival (ATP levels): -82.2411% and -82.5656% and -44.1066% and -65.5015% and -65.6835% and -64.1317%
[5]; GSC #9
  %Survival (ATP levels): -79.4354% and -88.1536% and -74.4757% and -75.2771% and -91.5176% and -88.8402%
[5]; GSC #10
  %Survival (ATP levels): -43.1943% and -48.7032% and -76.5217% and -90.9365%
[5]; GSC #13
  %Survival (ATP levels): -9.18% and -20.17% and 1.94% and -5.51% and 23.62% and 22.18%
[5]; GSC #15
  %Survival (ATP levels): -58.61% and -73.45% and -36.64% and -48.92%
[5]; GSC #18
  %Survival (ATP levels): -64.4% and -60.27% and -57.05% and -50.97%
[5]; GSC #19
  %Survival (ATP levels): -11.96% and -35.33% and -40.35% and -2.66% and -9.81%
[5]; GSC #24
  %Survival (ATP levels): -81.22% and -79.53% and -20.38% and -28.49%
[5]; GSC #30
  %Survival (ATP levels): -95.74% and -99.62% and -58.98% and -67.84% and -66.79% and -85.07% and -94.89%
[5]; GSC #31
  %Survival (ATP levels): 36.5% and 32.49% and 59.07% and 79.62% and 33.55% and 9%
[5]; GSC# 5
  %Survival of cells at day 0 (ATP levels): 11.1%
[5]; GSC# 6
  %Survival of cells at day 0 (ATP levels): -21.1%
[5]; GSC# 8
  %Survival of cells at day 0 (ATP levels): -67.4%
[5]; GSC# 9
  %Survival of cells at day 0 (ATP levels): -82.9%
[5]; GSC# 10
  %Survival of cells at day 0 (ATP levels): -64.8%
[5]; GSC# 13
  %Survival of cells at day 0 (ATP levels): 2.1%
[5]; GSC# 15
  %Survival of cells at day 0 (ATP levels): -54.4%
[5]; GSC# 17
  %Survival of cells at day 0 (ATP levels): 16.9%
[5]; GSC# 18
  %Survival of cells at day 0 (ATP levels): -58.2%
[5]; GSC# 19
  %Survival of cells at day 0 (ATP levels): -20%
[5]; GSC# 24
  %Survival of cells at day 0 (ATP levels): -52.4%
[5]; GSC# 30
  %Survival of cells at day 0 (ATP levels): -81.3%
[5]; GSC# 31
  %Survival of cells at day 0 (ATP levels): 41.7%
[6]
  concentration needed to induce toxicity: 100000 nM
[7]
  [PU-HZ151] Liver: 0.002 µM
  [PU-HZ151] MDA-MB-468 TUMOR: 1.786 µM and 1.509 µM and 1.067 µM
[8]
  concentration at 48 h: 1670 nM
[9]
  remaining binding at 10 µM: 78%
[10]
  remaining binding at 10 µM: 90%
[11]
  remaining binding at 10 µM: 100%
[12]
  remaining binding at 10 µM: 97%
[13]
  remaining binding at 10 µM: 91%
[14]; read-out: %Ctrl ABL1-nonphosphorylated
  remaining binding at 10 µM: 50%
[14]; read-out: %Ctrl ABL1-phosphorylated
  remaining binding at 10 µM: 70%
[15]
  remaining binding at 10 µM: 99%
[16]
  remaining binding at 10 µM: 77%
[17]
  remaining binding at 10 µM: 88%
[18]
  remaining binding at 10 µM: 96%
[19]
  remaining binding at 10 µM: 78%
[20]
  remaining binding at 10 µM: 96%
